Test results as given in paper PMC9960696, “Functional Expression of Recombinant Candida auris Proteins in Saccharomyces cerevisiae Enables Azole Susceptibility Evaluation and Drug Discovery” (Journal of Fungi, 2023).

What follows are compounds tested against T1, CauErg11-6×His (Candidozyma auris, UniProt A0A2H1A309) (assay: type II difference spectra titration).
T1 construct: gene B9J08_03698; full-length, C-terminal GGR linker and 6xHis kept; expressed in S. cerevisiae ADΔΔ (Y2767, native ERG11 deleted); DM-solubilised, Ni-NTA partially purified; mutant Y132F in strain Y2768
T1 sequence (A0A2H1A309 entry or part of it): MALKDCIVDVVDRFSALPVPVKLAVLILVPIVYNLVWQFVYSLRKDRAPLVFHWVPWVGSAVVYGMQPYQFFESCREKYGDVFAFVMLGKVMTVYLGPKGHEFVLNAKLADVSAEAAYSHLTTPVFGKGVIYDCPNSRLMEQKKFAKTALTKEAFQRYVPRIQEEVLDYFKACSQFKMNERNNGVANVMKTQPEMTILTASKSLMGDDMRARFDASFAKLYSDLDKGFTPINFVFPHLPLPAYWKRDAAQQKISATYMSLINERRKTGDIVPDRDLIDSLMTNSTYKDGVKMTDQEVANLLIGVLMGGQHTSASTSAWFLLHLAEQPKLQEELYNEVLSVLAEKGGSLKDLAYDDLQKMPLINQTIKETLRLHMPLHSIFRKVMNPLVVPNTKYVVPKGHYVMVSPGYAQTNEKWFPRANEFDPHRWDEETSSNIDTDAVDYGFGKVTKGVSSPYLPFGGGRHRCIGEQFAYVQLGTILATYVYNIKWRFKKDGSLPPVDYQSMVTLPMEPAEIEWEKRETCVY
Assay type: binding
From the text: type II difference spectra titration on CauErg11-6×His
For CC[C@@H]([C@H](C)O)n1ncn(-c2ccc(N3CCN(c4ccc(OC[C@@H]5CO[C@@](Cn6cncn6)(c6ccc(F)cc6F)C5)cc4)CC3)cc2)c1=O [POS, Posaconazole], the Kd was 0.34 µM.
C[C@@H](c1nc(-c2ccc(C#N)cc2)cs1)[C@](O)(Cn1cncn1)c1cc(F)ccc1F [ISA, Isavuconazole] gave a Kd of 0.2 µM.
With C[C@@H](c1ncncc1F)[C@](O)(Cn1cncn1)c1ccc(F)cc1F [VRC, Voriconazole] the Kd was 0.74 µM.
